Laboratory results: patent publication US20240376094A2, “SELECTIVE BCL-XL PROTAC COMPOUNDS AND METHODS OF USE” (Les Laboratoires Servier, priority 2021, published 2024)
pIC50: −log10 of the molar value.

Experiments:
[1] = molecular target: T1, endogenous BCL-xL (Homo sapiens, UniProt Q07817); experiment: Degradation of endogenous BCL-xL in COR-L105 (ProteinSimple Jess); type: cell-based; conditions: COR-L105, 24 h, COR-L105, dose 300 nM, read-out: % BCL-xL vs. Untreated, COR-L105
T1 construct: endogenous in cells; host or cells: COR-L105 (ECACC No. 92031918); NCI-H1650 (ATCC No. CRL-5883)
Summary of the method: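 COR-L105 cells (2,000,000/well) treated 24 h at 37 °C with compound at 100–300 nM final, singlet, alongside untreated cells. RIPA lysates normalized by BCA to 1.5 mg/mL, then BCL-xL detected by capillary immunoassay (2–40 kDa Jess) comparing treated with untreated lysates.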

[2] = test system: MOLT-4 cells; experiment: MOLT-4 cell viability, MTT assay; type: cell-based; conditions: Homo sapiens, MOLT-4, 48 h
Summary of the method: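 MOLT-4 cells in RPMI 1640 with 10% FBS were exposed to compounds for 48 h at 9 concentrations (3.16-fold dilutions, triplicates). After 4 h with MTT and overnight SDS/HCl solubilisation, absorbance was read at 540 nm. IC50 came from four-parameter fits versus control, as the mean of ≥2 independent experiments.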

T1 sequence (Q07817 whole entry): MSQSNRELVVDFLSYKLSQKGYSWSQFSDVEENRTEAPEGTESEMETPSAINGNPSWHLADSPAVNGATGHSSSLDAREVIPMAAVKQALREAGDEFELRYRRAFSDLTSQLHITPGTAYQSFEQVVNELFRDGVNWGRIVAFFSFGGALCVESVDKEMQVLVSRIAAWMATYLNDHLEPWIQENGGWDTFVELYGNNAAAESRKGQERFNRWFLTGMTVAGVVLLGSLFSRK

| Compound | remaining activity at 0.3 µM [1] [%] | pIC50 [2] |
| --- | --- | --- |
| Cc1ncsc1-c1ccc([C@H](C)NC(=O)[C@@H]2C[C@@H](O)CN2C(=O)[C@@H](NC(=O)CC23CC4CC(C2)CC(CC(=O)N2CCN(CC#Cc5ccc(OCCCc6sc(N7CCCc8c7nnc(Nc7nc9ccccc9s7)c8C)nc6C(=O)O)c(F)c5)CC2)(C4)C3)C(C)(C)C)cc1 [Example 42, 2-(3-(benzo[d]thiazol-2-ylamino)-4-methyl-6,7-dihydropyrido [2,3-c]pyridazin-8(5H)-yl)-5-(3-(2-fluoro-4-(3-(4-(2-((3S,5R)-3-(2-(((S)-1-((2S,4R)-4-hydroxy-2-(((S)-1-(4-(4-methylthiazol-5-yl)phenyl)ethyl)carbamoyl)pyrrolidin-1-yl)-3,3-dimethyl-1-oxobutan-2-yl)amino)-2-oxoethyl)adamantan-1-yl)acetyl)piperazin-1-yl)prop-1-yn-1-yl)phenoxy)propyl)thiazole-4-carboxylic acid] | 33.3 |  |
| Cc1ncsc1-c1ccc(CNC(=O)[C@@H]2C[C@@H](O)CN2C(=O)[C@@H](NC(=O)CCCCCCC(=O)N2CCN(CC#Cc3ccc(OCCCc4sc(N5CCCc6c5nnc(Nc5nc7ccccc7s5)c6C)nc4C(=O)O)c(F)c3)CC2)C(C)(C)C)cc1 [Example 33, 2-(3-(benzo[d]thiazol-2-ylamino)-4-methyl-6,7-dihydropyrido [2,3-c]pyridazin-8(5H)-yl)-5-(3-(2-fluoro-4-(3-(4-(8-(((S)-1-((2S,4R)-4-hydroxy-2-((4-(4-methylthiazol-5-yl)benzyl)carbamoyl)pyrrolidin-1-yl)-3,3-dimethyl-1-oxobutan-2-yl)amino)-8-oxooctanoyl)piperazin-1-yl)prop-1-yn-1-yl)phenoxy)propyl) thiazole-4-carboxylic acid] | 64.8 |  |
| Cc1ncsc1-c1ccc([C@H](C)NC(=O)[C@@H]2C[C@@H](O)CN2C(=O)[C@@H](NC(=O)CCCC(=O)N2CCN(CC#Cc3ccc(OCCCc4sc(N5CCCc6c5nnc(Nc5nc7ccccc7s5)c6C)nc4C(=O)O)c(F)c3)CC2)C(C)(C)C)cc1 [Example 35, 2-(3-(benzo[d]thiazol-2-ylamino)-4-methyl-6,7-dihydropyrido [2,3-c]pyridazin-8(5H)-yl)-5-(3-(2-fluoro-4-(3-(4-(5-(((S)-1-((2S,4R)-4-hydroxy-2-(((S)-1-(4-(4-methylthiazol-5-yl)phenyl)ethyl)carbamoyl)pyrrolidin-1-yl)-3,3-dimethyl-1-oxobutan-2-yl)amino)-5-oxopentanoyl)piperazin-1-yl)prop-1-yn-1-yl)phenoxy)propyl)thiazole-4-carboxylic acid] | > 90 |  |
| Cc1ncsc1-c1ccc(CNC(=O)C2C[C@@H](O)CN2C(=O)C(NC(=O)CCCCCC(=O)N2CCN(CC#Cc3ccc(OCCCc4sc(N5CCCc6c5nnc(Nc5nc7ccccc7s5)c6C)nc4C(=O)O)c(F)c3)CC2)C(C)(C)C)cc1 (stereo in doubt) [Example 15, 2-[3-(1,3-benzothiazol-2-ylamino)-4-methyl-6,7-dihydro-5H-pyrido[2,3-c]pyridazin-8-yl]-5-[3-[2-fluoro-4-[3-[4-[7-[[(1S)-1-[(2S,4R)-4-hydroxy-2-[[4-(4-methylthiazol-5-yl)phenyl]methylcarbamoyl]pyrrolidine-1-carbonyl]-2,2-dimethyl-propyl]amino]-7-oxo-heptanoyl]piperazin-1-yl]prop-1-ynyl]phenoxy]propyl] thiazole-4-carboxylic acid] |  | 8.25 |
| Cc1ncsc1-c1ccc([C@H](C)NC(=O)[C@@H]2C[C@@H](O)CN2C(=O)[C@@H](NC(=O)CCCCCCCCCCCN2CCN(CC#Cc3ccc(OCCCc4sc(N5CCCc6c5nnc(Nc5nc7ccccc7s5)c6C)nc4C(=O)O)c(F)c3)CC2)C(C)(C)C)cc1 [Example 51, 2-(3-(benzo[d]thiazol-2-ylamino)-4-methyl-6,7-dihydropyrido [2,3-c]pyridazin-8(5H)-yl)-5-(3-(2-fluoro-4-(3-(4-(12-(((S)-1-((2S,4R)-4-hydroxy-2-(((S)-1-(4-(4-methylthiazol-5-yl)phenyl)ethyl)carbamoyl)pyrrolidin-1-yl)-3,3-dimethyl-1-oxobutan-2-yl)amino)-12-oxododecyl)piperazin-1-yl)prop-1-yn-1-yl)phenoxy)propyl)thiazole-4-carboxylic acid] | 12.1 |  |
| Cc1ncsc1-c1ccc([C@H](C)NC(=O)[C@@H]2C[C@@H](O)CN2C(=O)[C@@H](NC(=O)CCCCCCCCCCC(=O)N2CCN(CC#Cc3ccc(OCCCc4sc(N5CCCc6c5nnc(Nc5nc7ccccc7s5)c6C)nc4C(=O)O)c(F)c3)CC2)C(C)(C)C)cc1 [Example 46, 2-(3-(benzo[d]thiazol-2-ylamino)-4-methyl-6,7-dihydropyrido [2,3-c]pyridazin-8(5H)-yl)-5-(3-(2-fluoro-4-(3-(4-(12-(((S)-1-((2S,4R)-4-hydroxy-2-(((S)-1-(4-(4-methylthiazol-5-yl)phenyl)ethyl)carbamoyl)pyrrolidin-1-yl)-3,3-dimethyl-1-oxobutan-2-yl)amino)-12-oxododecanoyl)piperazin-1-yl)prop-1-yn-1-yl)phenoxy)propyl)thiazole-4-carboxylic acid] | 22.6 |  |
| Cc1ncsc1-c1ccc([C@H](C)NC(=O)C2CC(O)CN2C(=O)C(NC(=O)CCCCCCCCCCCN2CCN(CC#Cc3ccc(OCCCc4sc(N5CCCc6c5nnc(Nc5nc7ccccc7s5)c6C)nc4C(=O)O)c(F)c3)CC2)C(C)(C)C)cc1 (stereo in doubt) [Example 31, 2-[3-(1,3-benzothiazol-2-ylamino)-4-methyl-6,7-dihydro-5H-pyrido[2,3-c]pyridazin-8-yl]-5-[3-[2-fluoro-4-[3-[4-[12-[[(1S)-1-[(2S,4R)-4-hydroxy-2-[[(1S)-1-[4-(4-methylthiazol-5-yl)phenyl]ethyl]carbamoyl]pyrrolidine-1-carbonyl]-2,2-dimethyl-propyl]amino]-12-oxo-dodecyl]piperazin-1-yl]prop-1-ynyl]phenoxy]propyl] thiazole-4-carboxylic acid] |  | 8.09 |

Other lines, results leading:

| remaining activity at 0.3 µM [1] [%] | pIC50 [2] | Compound |
| --- | --- | --- |
|  | 8.45 | Cc1ncsc1-c1ccc([C@H](C)NC(=O)[C@@H]2C[C@@H](O)CN2C(=O)[C@@H](NC(=O)CCCCCCCCN(C)CCOC23CC4(C)CC(C)(CC(Cn5ncc(-c6ccc(N7CCCc8c7nnc(Nc7nc9ccccc9s7)c8C)nc6C(=O)O)c5C)(C4)C2)C3)C(C)(C)C)cc1 [Example 5, 6-[3-(1,3-benzothiazol-2-ylamino)-4-methyl-6,7-dihydro-5H-pyrido[2,3-c]pyridazin-8-yl]-3-[1-[[3-[2-[[9-[[(1S)-1-[(2S,4R)-4-hydroxy-2-[[(1S)-1-[4-(4-methylthiazol-5-yl)phenyl]ethyl]carbamoyl]pyrrolidine-1-carbonyl]-2,2-dimethyl-propyl]amino]-9-oxo-nonyl]-methyl-amino]ethoxy]-5,7-dimethyl-1-adamantyl]methyl]-5-methyl-pyrazol-4-yl]pyridine-2-carboxylic acid] |
|  | 9.20 | Cc1ncsc1-c1ccc([C@H](C)NC(=O)[C@@H]2C[C@@H](O)CN2C(=O)[C@@H](NC(=O)CCCCCCCCCCCCCCCN(C)CCOC23CC4(C)CC(C)(CC(Cn5ncc(-c6ccc(N7CCCc8c7nnc(Nc7nc9ccccc9s7)c8C)nc6C(=O)O)c5C)(C4)C2)C3)C(C)(C)C)cc1 [Example 1, 6-[3-(1,3-benzothiazol-2-ylamino)-4-methyl-6,7-dihydro-5H-pyrido[2,3-c]pyridazin-8-yl]-3-[1-[[3-[2-[[16-[[(1S)-1-[(2S,4R)-4-hydroxy-2-[[(1S)-1-[4-(4-methylthiazol-5-yl)phenyl]ethyl]carbamoyl]pyrrolidine-1-carbonyl]-2,2-dimethyl-propyl]amino]-16-oxo-hexadecyl]-methyl-amino]ethoxy]-5,7-dimethyl-1-adamantyl]methyl]-5-methyl-pyrazol-4-yl]pyridine-2-carboxylic acid] |
|  | 8.18 | Cc1ncsc1-c1ccc([C@H](C)NC(=O)[C@@H]2C[C@@H](O)CN2C(=O)[C@@H](NC(=O)CCCCCCCN(C)CCOC23CC4(C)CC(C)(CC(Cn5ncc(-c6ccc(N7CCCc8c7nnc(Nc7nc9ccccc9s7)c8C)nc6C(=O)O)c5C)(C4)C2)C3)C(C)(C)C)cc1 [Example 6, 6-[3-(1,3-benzothiazol-2-ylamino)-4-methyl-6,7-dihydro-5H-pyrido[2,3-c]pyridazin-8-yl]-3-[1-[[3-[2-[[8-[[(1S)-1-[(2S,4R)-4-hydroxy-2-[[(1S)-1-[4-(4-methylthiazol-5-yl)phenyl]ethyl]carbamoyl]pyrrolidine-1-carbonyl]-2,2-dimethyl-propyl]amino]-8-oxo-octyl]-methyl-amino]ethoxy]-5,7-dimethyl-1-adamantyl]methyl]-5-methyl-pyrazol-4-yl]pyridine-2-carboxylic acid] |
| 22.3 |  | Cc1ncsc1-c1ccc([C@H](C)NC(=O)[C@@H]2C[C@@H](O)CN2C(=O)[C@@H](NC(=O)CCCCCCCCCCC(=O)N2CCN(CCOC34CC5(C)CC(C)(CC(Cn6ncc(-c7ccc(N8CCCc9c8nnc(Nc8nc%10ccccc%10s8)c9C)nc7C(=O)O)c6C)(C5)C3)C4)CC2)C(C)(C)C)cc1 [Example 47, 6-(3-(benzo[d]thiazol-2-ylamino)-4-methyl-6,7-dihydropyrido [2,3-c]pyridazin-8(5H)-yl)-3-(1-(((1r,3s,5R,7S)-3-(2-(4-(12-(((S)-1-((2S,4R)-4-hydroxy-2-(((S)-1-(4-(4-methylthiazol-5-yl)phenyl)ethyl)carbamoyl)pyrrolidin-1-yl)-3,3-dimethyl-1-oxobutan-2-yl)amino)-12-oxododecanoyl)piperazin-1-yl)ethoxy)-5,7-dimethyladamantan-1-yl)methyl)-5-methyl-1H-pyrazol-4-yl)picolinic acid] |
